Calls of active or inactive are those of the source.
Experiments:
[1] = molecular target: T1, Replicative DNA helicase DnaB (Mycobacterium tuberculosis, UniProt P9WMR3); assay: DnaB intein splicing inhibitors, dose response, biochemical, cell-free fluorescence (AID 449749); type: functional
T1 sequence (P9WMR3 whole entry): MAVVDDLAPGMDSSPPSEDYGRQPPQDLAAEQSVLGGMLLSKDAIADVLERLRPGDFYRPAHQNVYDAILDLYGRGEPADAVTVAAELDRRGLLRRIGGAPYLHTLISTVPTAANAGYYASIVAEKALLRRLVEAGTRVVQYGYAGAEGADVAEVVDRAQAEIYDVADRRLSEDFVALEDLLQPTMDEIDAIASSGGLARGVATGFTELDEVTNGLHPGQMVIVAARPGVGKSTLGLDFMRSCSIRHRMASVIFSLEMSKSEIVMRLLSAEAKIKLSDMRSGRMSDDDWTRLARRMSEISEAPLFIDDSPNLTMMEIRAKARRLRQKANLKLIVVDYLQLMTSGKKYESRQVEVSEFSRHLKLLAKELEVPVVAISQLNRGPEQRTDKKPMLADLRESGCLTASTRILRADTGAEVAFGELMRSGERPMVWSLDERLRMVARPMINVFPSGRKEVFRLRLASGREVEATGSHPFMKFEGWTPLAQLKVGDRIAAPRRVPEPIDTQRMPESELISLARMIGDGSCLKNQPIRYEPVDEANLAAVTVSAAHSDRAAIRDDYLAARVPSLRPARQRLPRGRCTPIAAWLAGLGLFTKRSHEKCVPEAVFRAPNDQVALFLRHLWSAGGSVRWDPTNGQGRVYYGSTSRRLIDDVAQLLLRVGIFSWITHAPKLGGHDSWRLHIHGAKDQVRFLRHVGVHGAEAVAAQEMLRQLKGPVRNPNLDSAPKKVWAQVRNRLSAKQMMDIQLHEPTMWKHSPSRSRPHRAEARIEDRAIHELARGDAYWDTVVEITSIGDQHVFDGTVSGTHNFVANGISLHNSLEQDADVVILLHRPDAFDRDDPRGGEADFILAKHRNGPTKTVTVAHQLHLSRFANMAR

Caspase-3 = molecular target: T2, Caspase-3 (Homo sapiens, UniProt P42574); assay: SAR Analysis of small molecule inhibitors of Sentrin-specific proteases (SENPs) using a Caspase-3 Selectivity assay. [Related pubchem assays (depositor defined):AID2540, AID2599, AID434973, AID489001]; type: functional
T2 sequence (P42574 whole entry): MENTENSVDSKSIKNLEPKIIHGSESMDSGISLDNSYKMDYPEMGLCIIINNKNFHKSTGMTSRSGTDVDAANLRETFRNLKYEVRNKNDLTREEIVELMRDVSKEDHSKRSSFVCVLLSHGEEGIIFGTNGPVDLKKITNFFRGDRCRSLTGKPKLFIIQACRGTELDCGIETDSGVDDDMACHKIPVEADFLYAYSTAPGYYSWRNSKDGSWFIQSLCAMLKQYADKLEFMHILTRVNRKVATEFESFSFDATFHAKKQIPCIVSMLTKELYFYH

[2] = molecular target: Dual specificity mitogen-activated protein kinase kinase 2 (Homo sapiens, UniProt P36507); assay: Navigating the Kinome. Panel member name: MAP2K2; type: functional
Dual specificity mitogen-activated protein kinase kinase 2, sequence (P36507 whole entry): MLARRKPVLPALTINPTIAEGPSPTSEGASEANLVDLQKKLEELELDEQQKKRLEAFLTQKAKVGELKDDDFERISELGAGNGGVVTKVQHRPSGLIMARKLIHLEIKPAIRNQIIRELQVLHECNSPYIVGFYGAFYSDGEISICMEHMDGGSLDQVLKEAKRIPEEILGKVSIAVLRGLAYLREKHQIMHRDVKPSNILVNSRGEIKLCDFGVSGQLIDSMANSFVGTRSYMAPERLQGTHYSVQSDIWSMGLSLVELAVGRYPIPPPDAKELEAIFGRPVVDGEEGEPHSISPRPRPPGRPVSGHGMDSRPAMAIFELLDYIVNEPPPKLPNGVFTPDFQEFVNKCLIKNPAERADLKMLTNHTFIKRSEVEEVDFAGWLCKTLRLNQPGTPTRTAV

[3] = molecular target: Dual specificity tyrosine-phosphorylation-regulated kinase 1A (Homo sapiens, UniProt Q13627); type: functional;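 note: measured against DYRK1A as one member of a broad kinome profiling panel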
[4] = molecular target: Cyclin-dependent kinase 8 (Homo sapiens, UniProt P49336); assay: Navigating the Kinome. Panel member name: CDK8; type: functional
Activated CDC42 kinase 1 = Activated CDC42 kinase 1 (Homo sapiens, UniProt Q07912); assay: Navigating the Kinome. Panel member name: ACK1; type: functional
[5] = molecular target: Macrophage-stimulating protein receptor (Homo sapiens, UniProt Q04912); assay: Navigating the Kinome. Panel member name: MST1R; type: functional
[6] = molecular target: Vascular endothelial growth factor receptor 2 (Homo sapiens, UniProt P35968); type: functional
[7] = molecular target: Serine/threonine-protein kinase TBK1 (Homo sapiens, UniProt Q9UHD2); assay: Navigating the Kinome. Panel member name: TBK1; type: functional
[8] = molecular target: Serine/threonine-protein kinase PAK 4 (Homo sapiens, UniProt O96013); type: functional;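 note: value obtained within a kinome profiling panel in which PAK4 was one of the panel members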
Serine/threonine-protein kinase PAK 4, sequence (O96013 whole entry): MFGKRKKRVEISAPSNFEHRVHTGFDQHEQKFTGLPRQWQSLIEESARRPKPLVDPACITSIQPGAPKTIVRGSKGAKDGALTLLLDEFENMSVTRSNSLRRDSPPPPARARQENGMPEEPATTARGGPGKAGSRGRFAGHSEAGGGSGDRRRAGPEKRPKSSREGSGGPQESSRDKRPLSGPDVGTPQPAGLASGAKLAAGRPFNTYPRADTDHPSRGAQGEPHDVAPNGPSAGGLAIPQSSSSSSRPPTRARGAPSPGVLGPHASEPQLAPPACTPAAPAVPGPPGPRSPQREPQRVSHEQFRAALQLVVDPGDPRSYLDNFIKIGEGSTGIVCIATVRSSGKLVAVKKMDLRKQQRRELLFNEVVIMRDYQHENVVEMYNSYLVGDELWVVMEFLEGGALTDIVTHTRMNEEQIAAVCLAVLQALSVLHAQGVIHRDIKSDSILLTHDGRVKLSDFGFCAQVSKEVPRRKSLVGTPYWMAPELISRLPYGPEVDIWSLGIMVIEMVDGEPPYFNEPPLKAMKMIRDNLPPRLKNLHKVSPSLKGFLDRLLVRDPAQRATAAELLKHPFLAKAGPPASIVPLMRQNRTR

[9] = molecular target: Serine/threonine-protein kinase Nek2 (Homo sapiens, UniProt P51955); type: functional
Serine/threonine-protein kinase Nek2, sequence (P51955 whole entry): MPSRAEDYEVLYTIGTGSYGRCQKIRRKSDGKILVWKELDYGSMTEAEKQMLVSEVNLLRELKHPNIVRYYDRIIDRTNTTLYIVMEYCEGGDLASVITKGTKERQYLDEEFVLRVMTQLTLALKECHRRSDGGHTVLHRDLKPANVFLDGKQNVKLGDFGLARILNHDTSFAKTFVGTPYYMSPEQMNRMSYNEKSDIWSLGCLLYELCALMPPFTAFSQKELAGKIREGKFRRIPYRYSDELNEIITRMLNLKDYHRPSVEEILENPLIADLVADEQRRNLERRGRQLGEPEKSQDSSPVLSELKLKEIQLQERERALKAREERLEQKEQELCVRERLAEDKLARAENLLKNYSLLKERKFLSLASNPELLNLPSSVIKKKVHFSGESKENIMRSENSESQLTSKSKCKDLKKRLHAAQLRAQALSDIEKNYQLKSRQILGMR

[10] = molecular target: Macrophage colony-stimulating factor 1 receptor (Homo sapiens, UniProt P07333); type: functional;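 note: value comes from the Navigating the Kinome screening panel, CSF1R member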
[11] = molecular target: Cyclin-dependent kinase 9 (Homo sapiens, UniProt P50750); type: functional;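 note: value from the CDK9 entry of a kinome-spanning kinase panel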
Cyclin-dependent kinase 9, sequence (P50750 whole entry, the tested form may be a part): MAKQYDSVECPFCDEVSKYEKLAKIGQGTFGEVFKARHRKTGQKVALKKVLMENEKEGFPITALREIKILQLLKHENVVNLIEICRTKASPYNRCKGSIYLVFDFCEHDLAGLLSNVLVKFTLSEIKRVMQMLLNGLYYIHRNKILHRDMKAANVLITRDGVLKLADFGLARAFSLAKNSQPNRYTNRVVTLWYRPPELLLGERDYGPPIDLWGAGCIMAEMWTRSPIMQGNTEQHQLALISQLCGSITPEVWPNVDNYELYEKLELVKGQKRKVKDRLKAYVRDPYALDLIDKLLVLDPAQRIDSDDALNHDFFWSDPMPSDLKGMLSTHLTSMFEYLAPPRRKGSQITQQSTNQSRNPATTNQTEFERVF

LIM domain kinase 1 = LIM domain kinase 1 (Homo sapiens, UniProt P53667); assay: Navigating the Kinome. Panel member name: LIMK1; type: functional
LIM domain kinase 1, sequence (P53667 whole entry, the tested form may be a part): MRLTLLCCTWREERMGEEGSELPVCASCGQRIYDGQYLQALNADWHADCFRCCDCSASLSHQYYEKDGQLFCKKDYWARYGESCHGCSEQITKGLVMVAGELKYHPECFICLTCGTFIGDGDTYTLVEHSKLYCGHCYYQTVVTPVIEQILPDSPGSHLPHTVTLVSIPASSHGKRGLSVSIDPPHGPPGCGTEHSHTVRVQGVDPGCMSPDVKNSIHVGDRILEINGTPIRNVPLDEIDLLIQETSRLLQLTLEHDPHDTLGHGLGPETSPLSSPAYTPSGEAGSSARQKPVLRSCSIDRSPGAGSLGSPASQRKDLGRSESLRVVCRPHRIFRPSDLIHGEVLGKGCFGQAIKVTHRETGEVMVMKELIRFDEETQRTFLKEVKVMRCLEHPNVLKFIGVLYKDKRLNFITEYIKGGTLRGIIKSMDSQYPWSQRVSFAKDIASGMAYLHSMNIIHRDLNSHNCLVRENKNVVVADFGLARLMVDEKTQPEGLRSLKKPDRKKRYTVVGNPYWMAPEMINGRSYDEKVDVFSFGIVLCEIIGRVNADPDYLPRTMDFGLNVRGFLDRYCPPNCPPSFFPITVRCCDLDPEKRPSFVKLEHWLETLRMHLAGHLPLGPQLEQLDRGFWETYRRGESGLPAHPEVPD

[12] = molecular target: T3, Serine/threonine-protein kinase Chk1 (Homo sapiens, UniProt O14757); type: functional;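 note: measured as one member of a kinome-wide kinase profiling panel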
T3 sequence (O14757 whole entry): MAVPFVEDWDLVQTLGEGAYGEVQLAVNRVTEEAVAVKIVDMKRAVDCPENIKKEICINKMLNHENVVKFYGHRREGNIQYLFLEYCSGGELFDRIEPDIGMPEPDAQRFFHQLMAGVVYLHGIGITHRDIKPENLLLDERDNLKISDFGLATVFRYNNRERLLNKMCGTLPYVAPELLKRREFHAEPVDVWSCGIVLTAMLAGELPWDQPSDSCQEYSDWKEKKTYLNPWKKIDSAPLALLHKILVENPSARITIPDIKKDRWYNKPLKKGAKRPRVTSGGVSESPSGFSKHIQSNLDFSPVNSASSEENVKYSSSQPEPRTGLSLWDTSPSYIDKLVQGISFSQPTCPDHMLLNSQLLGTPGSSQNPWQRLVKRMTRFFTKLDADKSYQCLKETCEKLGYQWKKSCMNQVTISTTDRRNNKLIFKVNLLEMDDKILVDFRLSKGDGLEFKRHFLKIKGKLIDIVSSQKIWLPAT

[13] = molecular target: Dual specificity mitogen-activated protein kinase kinase 1 (Homo sapiens, UniProt Q02750); assay: Navigating the Kinome. Panel member name: MAP2K1; type: functional
[14] = molecular target: Ribosomal protein S6 kinase alpha-3 (Homo sapiens, UniProt P51812); type: functional;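 note: measured within a kinome-wide profiling panel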
Ribosomal protein S6 kinase alpha-3, sequence (P51812 whole entry): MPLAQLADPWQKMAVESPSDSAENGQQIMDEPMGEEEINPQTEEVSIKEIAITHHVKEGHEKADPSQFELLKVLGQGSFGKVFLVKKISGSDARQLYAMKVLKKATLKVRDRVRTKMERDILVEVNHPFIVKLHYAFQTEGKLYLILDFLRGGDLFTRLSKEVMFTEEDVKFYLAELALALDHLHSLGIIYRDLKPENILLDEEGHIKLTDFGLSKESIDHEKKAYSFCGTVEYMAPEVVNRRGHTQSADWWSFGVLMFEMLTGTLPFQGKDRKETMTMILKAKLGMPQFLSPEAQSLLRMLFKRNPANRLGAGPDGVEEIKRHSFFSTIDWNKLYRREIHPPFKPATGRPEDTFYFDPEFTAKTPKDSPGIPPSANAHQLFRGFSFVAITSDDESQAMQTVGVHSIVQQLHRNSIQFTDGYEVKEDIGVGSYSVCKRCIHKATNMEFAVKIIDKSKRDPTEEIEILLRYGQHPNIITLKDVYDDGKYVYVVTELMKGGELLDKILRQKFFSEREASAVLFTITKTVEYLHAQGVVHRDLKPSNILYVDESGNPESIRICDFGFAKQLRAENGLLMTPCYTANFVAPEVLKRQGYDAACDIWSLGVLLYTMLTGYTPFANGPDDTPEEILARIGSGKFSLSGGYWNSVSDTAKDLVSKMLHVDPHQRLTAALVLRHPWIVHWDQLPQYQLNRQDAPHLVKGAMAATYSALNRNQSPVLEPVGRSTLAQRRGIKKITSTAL

Activin receptor type-1 = Activin receptor type-1 (Homo sapiens, UniProt Q04771); assay: Navigating the Kinome. Panel member name: ACVR1; type: functional
Activin receptor type-1, sequence (Q04771 whole entry): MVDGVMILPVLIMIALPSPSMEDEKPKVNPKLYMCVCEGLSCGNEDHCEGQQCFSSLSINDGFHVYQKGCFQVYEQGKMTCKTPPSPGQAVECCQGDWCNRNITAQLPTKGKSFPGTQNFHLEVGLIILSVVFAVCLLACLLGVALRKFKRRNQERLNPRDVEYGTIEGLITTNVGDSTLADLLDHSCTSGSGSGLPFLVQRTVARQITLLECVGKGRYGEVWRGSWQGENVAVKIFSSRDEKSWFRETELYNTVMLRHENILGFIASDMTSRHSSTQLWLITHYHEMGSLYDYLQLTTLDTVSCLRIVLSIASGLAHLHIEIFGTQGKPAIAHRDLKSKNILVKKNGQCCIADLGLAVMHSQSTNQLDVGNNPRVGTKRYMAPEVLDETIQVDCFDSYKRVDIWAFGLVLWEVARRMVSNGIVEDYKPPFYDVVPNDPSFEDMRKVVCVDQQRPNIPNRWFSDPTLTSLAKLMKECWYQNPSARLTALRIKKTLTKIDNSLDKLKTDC

[15] = molecular target: Serine/threonine-protein kinase TAO1 (Homo sapiens, UniProt Q7L7X3); type: functional
Serine/threonine-protein kinase TAO1, sequence (Q7L7X3 whole entry): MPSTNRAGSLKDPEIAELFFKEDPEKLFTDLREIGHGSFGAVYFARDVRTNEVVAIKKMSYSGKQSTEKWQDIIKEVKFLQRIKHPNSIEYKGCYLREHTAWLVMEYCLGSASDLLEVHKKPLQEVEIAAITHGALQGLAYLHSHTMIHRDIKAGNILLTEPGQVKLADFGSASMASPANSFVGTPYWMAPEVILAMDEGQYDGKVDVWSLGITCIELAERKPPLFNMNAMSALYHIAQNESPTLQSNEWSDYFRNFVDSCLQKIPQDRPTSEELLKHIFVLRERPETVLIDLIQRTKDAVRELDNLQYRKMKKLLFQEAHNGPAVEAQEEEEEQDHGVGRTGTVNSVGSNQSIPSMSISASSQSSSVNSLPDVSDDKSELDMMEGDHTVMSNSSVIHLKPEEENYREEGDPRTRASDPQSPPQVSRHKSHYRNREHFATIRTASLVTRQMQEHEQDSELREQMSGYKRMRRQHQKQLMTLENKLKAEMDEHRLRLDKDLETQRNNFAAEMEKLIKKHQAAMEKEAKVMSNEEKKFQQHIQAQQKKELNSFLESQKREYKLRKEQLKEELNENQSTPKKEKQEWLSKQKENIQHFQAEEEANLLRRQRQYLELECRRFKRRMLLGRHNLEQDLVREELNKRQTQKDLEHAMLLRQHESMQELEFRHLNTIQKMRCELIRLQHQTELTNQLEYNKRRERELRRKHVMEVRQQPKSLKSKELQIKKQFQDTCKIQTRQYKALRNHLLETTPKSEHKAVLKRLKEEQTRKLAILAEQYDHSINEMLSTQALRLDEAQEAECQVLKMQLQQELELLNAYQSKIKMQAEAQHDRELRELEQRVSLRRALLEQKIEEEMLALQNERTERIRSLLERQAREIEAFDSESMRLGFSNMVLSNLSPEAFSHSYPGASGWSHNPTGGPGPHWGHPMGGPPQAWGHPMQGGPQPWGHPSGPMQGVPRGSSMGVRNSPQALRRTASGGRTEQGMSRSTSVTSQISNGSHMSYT

[16] = tested on: Streptococcus sp. 'group A'; assay: growth inhibition of control SK(-) GAS strain, dose response, counter-screen for streptokinase expression inhibitor project, luminescence, kanamycin, BacTiterGlo, confirmation (AID 1900); type: functional, organism-based
[17] = molecular target: Matrix metalloproteinase-14 (Homo sapiens, UniProt P50281); assay: SAR confirmation of uHTS hits for a small molecule inhibitors of MT1-MMP activation in a fluorescence assay.; type: functional
Beta-galactosidase = Beta-galactosidase (Escherichia coli, UniProt Q8VNN2); assay: beta-galactosidase enzyme inhibitors and activators, dose response, artefact control for CCR6 antagonist project, biochemical, E. coli enzyme, set 3 (AID 504712); type: functional

## Cc1ccc(NC(=O)COc2cccc(/C=C3\SC(=S)N(CCC(=O)O)C3=O)c2)cc1Cl
[1]
  AC50: 6.13 µM (active)
Caspase-3
  IC50: > 99 µM (inactive)

## COc1cccc(C(C)NC(=O)c2ccc(-c3ccncc3)s2)c1 (configuration not stated)
[2]
  Ki: > 3.98 µM (inactive)
[3]
  Ki: > 2 µM (inactive)
[4]
  Ki: 3.16 µM (active)
Activated CDC42 kinase 1
  Ki: > 3.98 µM (inactive)
[5]
  Ki: > 3.98 µM (inactive)
[6]
  Ki: > 2.51 µM (inactive)
[7]
  Ki: > 3.16 µM (inactive)
[8]
  Ki: > 5.01 µM (inactive)
[9]
  Ki: > 3.16 µM (inactive)
[10]
  Ki: > 2.51 µM (inactive)
[11]
  Ki: > 1.58 µM (inactive)
LIM domain kinase 1
  Ki: > 3.16 µM (inactive)
[12]
  Ki: 0.0794 µM (active)
[13]
  Ki: > 3.16 µM (inactive)
[14]
  Ki: 1.58 µM (active)
Activin receptor type-1
  Ki: 2.51 µM (active)
[15]
  Ki: > 6.31 µM (inactive)

## O=Nc1c(-c2c(O)[nH]c3cc(Br)ccc23)[nH]c2ccccc12
[16]
  EC50: 2.6 µM (active)
[17]
  IC50: 8.89 µM (active)
Beta-galactosidase
  IC50: 40.8 µM (inactive)

Reference: ChEMBL document CHEMBL1201862, “PubChem BioAssay data set” (2004)
